# Test results published in article PMC11912722, “Chikusetsusaponin IVa targeted YAP as an inhibitor to attenuate liver fibrosis and hepatic stellate cell activation” (Chinese Medicine, 2025).
# Target: T1, YAP in LX-2 cells (Homo sapiens, UniProt P46937)
# T1 construct: gene YAP1; endogenous full-length protein in LX-2 cells, detected by western blot (YAP antibody Cell Signaling 14074 T)
# Test: CETSA, western blot
# Assay type: cell-based
# Details: LX-2 cells incubated 24 h with 10 μmol/L CS-IVa, lysed, supernatant heated 45-75 °C for 3 min
# T1 sequence (P46937 whole entry): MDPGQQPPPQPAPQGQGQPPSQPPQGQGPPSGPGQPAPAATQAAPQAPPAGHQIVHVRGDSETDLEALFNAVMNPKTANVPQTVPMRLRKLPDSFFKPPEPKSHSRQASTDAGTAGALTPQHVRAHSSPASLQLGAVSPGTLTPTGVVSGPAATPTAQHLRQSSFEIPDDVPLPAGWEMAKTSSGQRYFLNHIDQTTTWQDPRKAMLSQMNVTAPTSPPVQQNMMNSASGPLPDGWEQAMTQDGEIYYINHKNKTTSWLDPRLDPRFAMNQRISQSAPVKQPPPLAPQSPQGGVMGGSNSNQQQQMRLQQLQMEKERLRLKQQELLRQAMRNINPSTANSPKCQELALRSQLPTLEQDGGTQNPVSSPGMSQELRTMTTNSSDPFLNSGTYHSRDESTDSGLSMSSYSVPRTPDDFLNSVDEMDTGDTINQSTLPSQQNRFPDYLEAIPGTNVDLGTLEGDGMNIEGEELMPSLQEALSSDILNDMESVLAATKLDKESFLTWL
smiles,measurement,value
CC1(C)CC[C@]2(C(=O)O[C@@H]3O[C@H](CO)[C@@H](O)[C@H](O)[C@H]3O)CC[C@]3(C)C(=CC[C@@H]4[C@@]5(C)CC[C@H](O[C@@H]6O[C@H](C(=O)O)[C@@H](O)[C@H](O)[C@H]6O)C(C)(C)[C@@H]5CC[C@]43C)[C@@H]2C1 [CS-IVa],thermal stability (CETSA),treatment with CS-IVa significantly increased the thermal stability of YAP
